Laboratory results from ChEMBL document CHEMBL3992539, “Discovery of a series of N-(5-(quinolin-6-yl)pyridin-3-yl)benzenesulfonamides as PI3K/mTOR dual inhibitors” (Eur J Med Chem, 2017).
pIC50: −log10 of the molar value. Calls of active or inactive are those of the source. The rule behind the calls is not given here.

Key:
HCT-116 = experiment: Antiproliferative activity against human HCT116 cells after 72 hrs by SRB assay; format: functional, cell-based; settings: HCT-116, 72 h
PC-3 = experiment: Antiproliferative activity against human PC3 cells after 72 hrs by SRB assay; format: functional, cell-based; settings: PC-3, 72 h
[1] = biological target: PI3-kinase p110-alpha/p85-alpha (Homo sapiens, UniProt P42336); experiment: Inhibition of PI3K p110alpha/p85alpha (unknown origin) using PIP2 as substrate after 1 hr by luminescent kinase-Glo assay; format: protein-complex assay
[2] = biological target: Phosphatidylinositol 4,5-bisphosphate 3-kinase catalytic subunit gamma isoform (Homo sapiens, UniProt P48736); experiment: Inhibition of recombinant full length His-tagged human PI3K p110gamma expressed in baculovirus expression system using PIP2 as substrate after 1 hr by ADP-Glo kinase assay
PI3K p110 beta/p85 alpha = PI3K p110 beta/p85 alpha (Homo sapiens, UniProt P42338); experiment: Inhibition of recombinant full length human N-terminal His6-tagged PI3K p110beta/p85alpha expressed in baculovirus infected Sf21 cells using PIP2 as substrate after 1 hr by ADP-Glo kinase assay
Mus musculus = experiment: Volume of distribution in mouse at 5 mg/kg, po by UPLC-MS/MS analysis; format: ADME, organism-based; settings: in vivo
[3] = biological target: Serine/threonine-protein kinase mTOR (Homo sapiens, UniProt P42345); experiment: Inhibition of recombinant human N-terminal FLAG-tagged mTOR (1362-end residues) using ULight-4E-BP1 peptide substrate after 1 hr in presence of ATP by Lance Ultra assay
Homo sapiens = species: Homo sapiens; experiment: Inhibition of PI3K in PTEN null human PC3 cells assessed as reduction in Akt phosphorylation at Ser-473 residue at 100 nM after 3 hrs by Western blot method; format: cell-based
[4] = Cmax in mouse at 5 mg/kg, po by UPLC-MS/MS analysis; format: ADME, organism-based; design: dose 5 mg/kg, route oral; settings: in vivo
[5] = AUCt in mouse at 5 mg/kg, po by UPLC-MS/MS analysis; format: ADME, organism-based; settings: in vivo
[6] = Terminal half life in mouse at 5 mg/kg, po by UPLC-MS/MS analysis; format: ADME, organism-based; settings: in vivo, read-out: beta t1/2 (converted)
[7] = Mean residence time in mouse at 5 mg/kg, po by UPLC-MS/MS analysis; format: ADME, organism-based; settings: in vivo
[8] = Plasma clearance in mouse at 5 mg/kg, po by UPLC-MS/MS analysis; format: ADME, organism-based
[9] = biological target: T1, Phosphatidylinositol 4,5-bisphosphate 3-kinase catalytic subunit delta isoform (Homo sapiens, UniProt O00329); experiment: Inhibition of PI3K p110delta (unknown origin) using PIP2 as substrate after 1 hr by ADP-Glo kinase assay
T1 sequence (O00329 whole entry): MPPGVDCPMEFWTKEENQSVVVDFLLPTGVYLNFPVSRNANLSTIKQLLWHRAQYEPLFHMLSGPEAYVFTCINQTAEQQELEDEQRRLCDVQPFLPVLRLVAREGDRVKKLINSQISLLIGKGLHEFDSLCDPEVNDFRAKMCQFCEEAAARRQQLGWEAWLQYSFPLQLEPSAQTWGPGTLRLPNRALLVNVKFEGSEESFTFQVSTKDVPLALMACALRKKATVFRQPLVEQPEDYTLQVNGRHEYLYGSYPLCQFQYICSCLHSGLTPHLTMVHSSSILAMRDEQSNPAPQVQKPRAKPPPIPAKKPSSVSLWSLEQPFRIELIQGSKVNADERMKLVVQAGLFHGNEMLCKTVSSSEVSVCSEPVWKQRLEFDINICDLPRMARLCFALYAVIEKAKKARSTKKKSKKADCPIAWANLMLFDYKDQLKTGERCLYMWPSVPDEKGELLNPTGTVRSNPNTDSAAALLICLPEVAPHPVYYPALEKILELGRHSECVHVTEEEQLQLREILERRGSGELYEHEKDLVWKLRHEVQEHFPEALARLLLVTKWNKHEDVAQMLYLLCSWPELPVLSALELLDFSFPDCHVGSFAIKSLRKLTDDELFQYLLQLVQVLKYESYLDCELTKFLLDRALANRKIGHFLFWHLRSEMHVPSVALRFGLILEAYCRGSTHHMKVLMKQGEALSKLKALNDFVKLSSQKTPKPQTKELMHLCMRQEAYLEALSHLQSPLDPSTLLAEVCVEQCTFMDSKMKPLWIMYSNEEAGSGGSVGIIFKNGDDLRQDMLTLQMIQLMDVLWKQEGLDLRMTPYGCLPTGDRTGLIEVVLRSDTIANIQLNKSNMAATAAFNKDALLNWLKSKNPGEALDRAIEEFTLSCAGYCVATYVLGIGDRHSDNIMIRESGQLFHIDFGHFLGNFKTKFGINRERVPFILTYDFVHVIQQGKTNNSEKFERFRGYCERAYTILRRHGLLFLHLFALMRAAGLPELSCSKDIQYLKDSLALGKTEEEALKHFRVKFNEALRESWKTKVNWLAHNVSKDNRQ

Sequence of PI3-kinase p110-alpha/p85-alpha (P27986 whole entry, canonical isoform): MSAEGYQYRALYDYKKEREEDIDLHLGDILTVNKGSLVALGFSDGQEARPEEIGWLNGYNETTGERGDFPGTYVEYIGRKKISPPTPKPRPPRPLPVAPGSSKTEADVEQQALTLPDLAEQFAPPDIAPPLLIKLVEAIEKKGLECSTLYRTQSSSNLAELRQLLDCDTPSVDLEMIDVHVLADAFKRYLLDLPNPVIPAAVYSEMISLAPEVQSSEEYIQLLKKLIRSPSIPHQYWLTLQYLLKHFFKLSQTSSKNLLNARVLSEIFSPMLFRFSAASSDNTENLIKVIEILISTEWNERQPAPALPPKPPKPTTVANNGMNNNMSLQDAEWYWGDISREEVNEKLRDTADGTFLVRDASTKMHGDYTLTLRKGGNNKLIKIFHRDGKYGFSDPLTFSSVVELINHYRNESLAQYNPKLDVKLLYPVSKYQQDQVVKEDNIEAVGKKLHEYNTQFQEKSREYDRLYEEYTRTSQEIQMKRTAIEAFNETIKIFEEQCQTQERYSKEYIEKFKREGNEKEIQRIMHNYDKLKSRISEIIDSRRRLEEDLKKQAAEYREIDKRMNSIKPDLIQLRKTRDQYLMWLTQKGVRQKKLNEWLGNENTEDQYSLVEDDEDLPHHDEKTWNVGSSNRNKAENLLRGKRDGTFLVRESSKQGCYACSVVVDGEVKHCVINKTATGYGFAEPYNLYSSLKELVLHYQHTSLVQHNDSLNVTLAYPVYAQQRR
Sequence of PI3-kinase p110-alpha/p85-alpha (P42336 whole entry, canonical isoform): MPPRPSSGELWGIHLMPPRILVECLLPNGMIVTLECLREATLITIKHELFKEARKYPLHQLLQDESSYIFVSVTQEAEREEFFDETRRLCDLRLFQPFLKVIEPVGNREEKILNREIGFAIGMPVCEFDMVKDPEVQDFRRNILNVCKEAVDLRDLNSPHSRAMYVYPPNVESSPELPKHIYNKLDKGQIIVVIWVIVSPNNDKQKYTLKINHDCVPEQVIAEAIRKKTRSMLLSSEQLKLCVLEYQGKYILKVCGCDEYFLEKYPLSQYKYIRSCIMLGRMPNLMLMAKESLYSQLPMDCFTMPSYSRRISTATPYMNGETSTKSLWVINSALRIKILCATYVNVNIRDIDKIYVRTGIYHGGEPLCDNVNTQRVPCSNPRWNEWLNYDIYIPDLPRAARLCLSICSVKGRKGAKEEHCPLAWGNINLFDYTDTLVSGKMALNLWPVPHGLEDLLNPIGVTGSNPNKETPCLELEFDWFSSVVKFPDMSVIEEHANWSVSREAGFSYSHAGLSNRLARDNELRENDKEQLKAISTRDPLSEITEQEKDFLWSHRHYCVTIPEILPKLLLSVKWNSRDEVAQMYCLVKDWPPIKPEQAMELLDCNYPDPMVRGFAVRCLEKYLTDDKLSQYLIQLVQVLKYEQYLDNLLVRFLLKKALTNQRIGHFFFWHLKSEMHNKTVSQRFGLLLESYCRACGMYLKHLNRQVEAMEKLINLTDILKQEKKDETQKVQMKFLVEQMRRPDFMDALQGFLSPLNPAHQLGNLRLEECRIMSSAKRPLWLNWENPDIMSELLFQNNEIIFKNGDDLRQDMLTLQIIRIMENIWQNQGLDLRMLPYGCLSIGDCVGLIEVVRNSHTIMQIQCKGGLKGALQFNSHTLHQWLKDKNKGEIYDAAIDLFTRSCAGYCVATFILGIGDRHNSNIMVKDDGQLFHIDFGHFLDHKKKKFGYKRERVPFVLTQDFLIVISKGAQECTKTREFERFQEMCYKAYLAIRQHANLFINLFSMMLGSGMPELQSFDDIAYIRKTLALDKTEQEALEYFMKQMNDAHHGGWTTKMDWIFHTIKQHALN
Sequence of Phosphatidylinositol 4,5-bisphosphate 3-kinase catalytic subunit gamma isoform (P48736 whole entry, canonical isoform): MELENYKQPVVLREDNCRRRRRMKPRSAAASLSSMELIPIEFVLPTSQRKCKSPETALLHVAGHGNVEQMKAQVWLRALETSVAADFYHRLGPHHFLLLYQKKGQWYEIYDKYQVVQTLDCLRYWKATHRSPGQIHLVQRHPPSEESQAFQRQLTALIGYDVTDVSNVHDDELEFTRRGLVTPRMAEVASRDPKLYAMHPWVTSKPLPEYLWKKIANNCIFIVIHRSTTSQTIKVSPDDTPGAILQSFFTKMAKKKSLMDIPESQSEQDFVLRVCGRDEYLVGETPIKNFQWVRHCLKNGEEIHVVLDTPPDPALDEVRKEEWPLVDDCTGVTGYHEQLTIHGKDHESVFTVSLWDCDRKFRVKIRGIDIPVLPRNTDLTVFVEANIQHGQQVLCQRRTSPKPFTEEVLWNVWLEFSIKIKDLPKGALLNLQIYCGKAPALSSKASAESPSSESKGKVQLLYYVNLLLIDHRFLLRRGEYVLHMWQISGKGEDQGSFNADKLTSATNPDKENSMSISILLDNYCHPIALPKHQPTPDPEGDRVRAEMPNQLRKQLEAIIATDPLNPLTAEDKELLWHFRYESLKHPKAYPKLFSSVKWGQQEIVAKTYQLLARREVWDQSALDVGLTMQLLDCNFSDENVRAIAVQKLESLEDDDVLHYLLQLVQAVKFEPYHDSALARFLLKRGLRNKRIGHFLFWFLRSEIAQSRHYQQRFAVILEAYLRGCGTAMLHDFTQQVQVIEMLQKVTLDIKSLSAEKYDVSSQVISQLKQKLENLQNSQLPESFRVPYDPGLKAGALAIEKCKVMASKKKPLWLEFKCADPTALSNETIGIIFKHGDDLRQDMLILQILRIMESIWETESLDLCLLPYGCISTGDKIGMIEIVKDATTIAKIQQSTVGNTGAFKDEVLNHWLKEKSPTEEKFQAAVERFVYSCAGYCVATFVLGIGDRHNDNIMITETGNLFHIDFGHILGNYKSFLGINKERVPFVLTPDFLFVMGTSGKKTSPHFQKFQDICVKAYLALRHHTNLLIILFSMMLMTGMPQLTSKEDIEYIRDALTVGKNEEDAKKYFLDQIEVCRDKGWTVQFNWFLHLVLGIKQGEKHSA
Sequence of PI3K p110 beta/p85 alpha (P27986 whole entry): as the sequence (P27986 whole entry, canonical isoform) above
Sequence of PI3K p110 beta/p85 alpha (P42338 whole entry): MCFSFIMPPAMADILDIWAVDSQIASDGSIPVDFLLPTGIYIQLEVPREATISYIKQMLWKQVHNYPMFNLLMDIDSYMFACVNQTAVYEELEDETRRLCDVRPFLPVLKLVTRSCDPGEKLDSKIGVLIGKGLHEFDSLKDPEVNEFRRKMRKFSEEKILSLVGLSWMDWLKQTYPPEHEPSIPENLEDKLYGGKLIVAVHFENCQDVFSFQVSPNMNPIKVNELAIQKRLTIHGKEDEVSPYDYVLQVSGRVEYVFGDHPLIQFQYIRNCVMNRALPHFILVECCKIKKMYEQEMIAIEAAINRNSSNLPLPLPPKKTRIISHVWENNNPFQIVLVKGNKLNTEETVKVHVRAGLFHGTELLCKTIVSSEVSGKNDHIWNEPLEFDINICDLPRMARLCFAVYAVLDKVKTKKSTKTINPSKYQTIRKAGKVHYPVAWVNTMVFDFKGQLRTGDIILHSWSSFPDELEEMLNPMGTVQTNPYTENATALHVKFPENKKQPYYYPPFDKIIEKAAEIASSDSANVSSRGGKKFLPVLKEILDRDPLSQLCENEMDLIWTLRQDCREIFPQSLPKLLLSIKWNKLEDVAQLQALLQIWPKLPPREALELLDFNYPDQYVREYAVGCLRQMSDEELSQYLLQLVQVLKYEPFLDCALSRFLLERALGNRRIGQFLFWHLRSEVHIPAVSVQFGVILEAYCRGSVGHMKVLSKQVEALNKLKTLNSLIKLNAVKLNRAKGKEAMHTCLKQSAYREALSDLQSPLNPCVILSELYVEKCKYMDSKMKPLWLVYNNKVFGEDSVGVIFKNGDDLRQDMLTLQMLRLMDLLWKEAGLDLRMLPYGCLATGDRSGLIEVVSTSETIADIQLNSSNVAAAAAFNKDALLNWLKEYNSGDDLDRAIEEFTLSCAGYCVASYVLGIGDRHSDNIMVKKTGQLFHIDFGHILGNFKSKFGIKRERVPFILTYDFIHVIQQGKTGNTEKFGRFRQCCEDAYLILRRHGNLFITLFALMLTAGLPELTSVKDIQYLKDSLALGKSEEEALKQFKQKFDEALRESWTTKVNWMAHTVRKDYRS

| SMILES | pIC50 (HCT-116) | pIC50 (PC-3) | pIC50 [1] | other results |
| --- | --- | --- | --- | --- |
| CCNc1cnc2ccc(-c3cnc(OC)c(NS(=O)(=O)c4ccc(F)cc4F)c3)cc2c1OC | 5.73 | 5.32 | 8.03 | – |
| COc1ncc(-c2ccc3ncc(NC(=O)CN4CCOCC4)c(OC)c3c2)cc1NS(=O)(=O)c1ccc(F)cc1F | 6.33 | 7.10 | 8.77 | pIC50 [2]: 8.08; pIC50 (PI3K p110 beta/p85 alpha): 8.41; Vd (Mus musculus): 1 L/kg; pIC50 [3]: 8.00; inhibition (Homo sapiens): Active; Cmax [4]: 2950 ng/mL; AUC(0-t) [5]: 11700 ng·h/mL; half-life [6]: 1.6 h; MRT [7]: 2.7 h; CL/F [8]: 7 mL/min/kg; pIC50 [9]: 9.06 |
| COc1ncc(-c2ccc3ncc(NC(=O)CN4CCCC(O)C4)c(OC)c3c2)cc1NS(=O)(=O)c1ccc(F)cc1F (stereo unspecified) | 5.75 | 5.87 | 8.82 | – |
| COc1ncc(-c2ccc3ncc(NC(=O)CN4CCOCC4)c(OC)c3c2)cc1NS(=O)(=O)c1ccc(F)cc1 | 5.55 | 5.74 | 8.57 | – |
| COc1ncc(-c2ccc3ncc(NCC4CCN(S(C)(=O)=O)CC4)c(OC)c3c2)cc1NS(=O)(=O)c1ccc(F)cc1F | 5.87 | 5.55 | 8.33 | – |
| COc1ccc(CNc2cnc3ccc(-c4cnc(OC)c(NS(=O)(=O)c5ccc(F)cc5F)c4)cc3c2OC)cc1 | 4.99 | 5.34 | 7.57 | – |
| COc1ncc(-c2ccc3ncc(NCC4CCCCC4)c(OC)c3c2)cc1NS(=O)(=O)c1ccc(F)cc1F | 4.87 | 5.05 | 6.68 | – |
| COc1ncc(-c2ccc3ncc(NC(=O)CN(C)CCO)c(OC)c3c2)cc1NS(=O)(=O)c1ccc(F)cc1F | 5.75 | 5.70 | 8.89 | – |
| Cn1c(=O)n(-c2ccc(C(C)(C)C#N)cc2)c2c3cc(-c4cnc5ccccc5c4)ccc3ncc21 [DACTOLISIB] | 6.66 | 6.29 | – | – |
| COc1ncc(-c2ccc3ncc(NC(=O)CN4CCOCC4)c(OC)c3c2)cc1NS(=O)(=O)c1ccc(C(F)(F)F)cc1 | 5.60 | 5.43 | 8.65 | – |
| COc1ncc(-c2ccc3ncc(NCc4ccc(C(F)(F)F)cc4)c(OC)c3c2)cc1NS(=O)(=O)c1ccc(F)cc1F | 5.49 | 5.54 | 7.52 | – |
| COc1ncc(-c2ccc3ncc(NC(=O)C4CCCCC4)c(OC)c3c2)cc1NS(=O)(=O)c1ccc(F)cc1F | 5.34 | 5.18 | 7.82 | – |
| COc1ncc(-c2ccc3ncc(NC(=O)CN4CCC(O)CC4)c(OC)c3c2)cc1NS(=O)(=O)c1ccc(F)cc1F | 5.70 | 5.49 | 8.70 | – |
| COc1ncc(-c2ccc3ncc(NCc4ccccc4)c(OC)c3c2)cc1NS(=O)(=O)c1ccc(F)cc1F | 4.77 | 5.36 | 7.44 | – |
| COc1ncc(-c2ccc3ncc(NC(=O)CN4CCN(C)CC4)c(OC)c3c2)cc1NS(=O)(=O)c1ccc(F)cc1F | 5.81 | 5.76 | 8.49 | – |
| COc1ncc(-c2ccc3ncc(NC(C)=O)c(OC)c3c2)cc1NS(=O)(=O)c1ccc(F)cc1F | 6.26 | 5.91 | 8.08 | – |
| COc1ncc(-c2ccc3ncc(NCC4CCN(C(C)=O)CC4)c(OC)c3c2)cc1NS(=O)(=O)c1ccc(F)cc1F | 5.71 | 5.59 | 8.43 | – |
